Experimental data as given in patent US9751862B2, “Pesticidally active substituted pyridyl carboxamides” (Syngenta Participations AG, priority 2014, dated 2017).
Where two headings read alike, the source gives them in different places.

Experiments:
Format in all cases: in vivo
[1] = system: Myzus persicae (Green Peach Aphid); assay: Activity against Myzus persicae (mixed population, feeding/residual contact activity, preventive), sunflower leaf discs; settings: foliar, 144 h, read-out: activity (mortality)
Procedure: Sunflower leaf discs were placed on agar in a 24-well microtiter plate and sprayed with test solutions. After drying, the leaf discs were infested with an aphid population of mixed ages. After an incubation period of 6 days, samples were checked for mortality and special effects (e.g. phytotoxicity).

[2] = system: Myzus persicae (Green Peach Aphid); assay: Activity against Myzus persicae (mixed population, systemic/feeding activity, curative), pea seedlings; settings: 144 h, pea seedling roots in test solution, 6 days after introduction
From the text: Example B2: Activity Against Myzus persicae (Green Peach Aphid) (Mixed Population, Systemic/Feeding Activity, Curative)
Pea seedlings, infested with an aphid population of mixed ages, were placed with the roots directly in the test solutions. 6 days after introduction, samples were checked for mortality and special effects on the plant.

[3] = system: Bemisia tabaci; assay: Activity against Bemisia tabaci (adults on cotton, contact, preventative); settings: foliar, 168 h, sprayed cotton leaf discs, adult white flies, 7 DAT
Procedure: Example B3: Activity Against Bemisia tabaci, (Adults on Cotton, Contact, Preventative)
Cotton leaf discs are placed on agar in a 24-well microtiter plate and sprayed with test solutions. After drying, the leaf discs are infested with adult white flies. After an incubation period of 7 DAT, samples are checked for mortality and special effects (e.g. phytotoxicity).

[4] = system: Frankliniella occidentalis (Western Flower Thrips); assay: Activity against Frankliniella occidentalis (mixed population, contact/feeding), bean plants; settings: 200 ppm; sprayed bean plants; 14 days after infestation
Procedure: Example B4: Activity Against Frankliniella occidentalis (Western Flower Thrips) (Mixed Population, Contact/Feeding)
Bean plants were treated with diluted test solutions in a spray chamber. After drying, plants were infested with a thrips population of mixed ages. 14 days after the infestation, samples were checked for damage reduction compare to the non treated samples.

[5] = 200 ppm, sprayed sunflower leaf discs, 6 days incubation

Structure (SMILES)	mortality at 200 ppm [1, 5] [%]	mortality at 24 ppm [2] [%]	mortality at 200 ppm [3] [%]	activity (damage reduction compared to non treated samples) [4]	mortality at 200 ppm [1] [%]
Cc1cc(CC#N)cnc1-n1ncc(C(=O)N(C)c2cccnc2)c1C [Compound 1.001, 1-[5-(cyanomethyl)-3-methyl-2-pyridyl]-N,5-dimethyl-N-(3-pyridyl)pyrazole-4-carboxamide]	≥ 80	> 80	> 80	–	–
Cc1cc(C2(C#N)CC2)cnc1-n1ncc(C(=O)N(C)c2cccnc2)c1C [Compound 1.002, 1-[5-(1-cyanocyclopropyl)-3-methyl-2-pyridyl]-N,5-dimethyl-N-(3-pyridyl)pyrazole-4-carboxamide]	≥ 80	> 80	–	–	–
Cc1cc(C(C)C#N)cnc1-n1ncc(C(=O)N(C)c2cccnc2)c1C (stereo not shown) [Compound 1.003, 1-[5-(1-cyanoethyl)-3-methyl-2-pyridyl]-N,5-dimethyl-N-(3-pyridyl)pyrazole-4-carboxamide]	≥ 80	–	–	over 80%	–
Cc1cc(C(C)(C)C#N)cnc1-n1ncc(C(=O)N(C)c2cccnc2)c1C [Compound 1.004, 1-[5-(1-cyano-1-methyl-ethyl)-3-methyl-2-pyridyl]-N,5-dimethyl-N-(3-pyridyl)pyrazole-4-carboxamide]	≥ 80	> 80	–	–	–
Cc1cc(/C(C#N)=N/O)cnc1-n1ncc(C(=O)N(C)c2cccnc2)c1C [Compound 1.007, 1-[5-[(Z)-C-cyano-N-hydroxy-carbonimidoyl]-3-methyl-2-pyridyl]-N,5-dimethyl-N-(3-pyridyl)pyrazole-4-carboxamide]	≥ 80	> 80	–	–	–
CCO/N=C(\C#N)c1cnc(-n2ncc(C(=O)N(C)c3cccnc3)c2C)c(C)c1 [Compound 1.008, (3E/Z)-N-ethoxy-5-methyl-6-[5-methyl-4-[methyl(3-pyridyl)carbamoyl]pyrazol-1-yl]pyridine-3-carboximidoyl cyanide]	–	–	–	–	≥ 80
CCOC(=O)C(CC)c1cnc(-n2ncc(C(=O)N(C)c3cccnc3)c2C)c(C)c1 (stereo not shown) [Compound 1.009]	≥ 80	–	–	–	–
